# Laboratory results reported in patent US8088426B2, “Kokumi flavour compounds and use” (priority 2005, dated 2012).
# “Also recorded” adds a separate entry of the source.
# What was measured:
# Type in all cases: in vivo
# trained sensory panel [1] = assay: Sensory triangle test, kokumi taste in chicken broth; settings: for Sensory descriptors: pH 6.5, versus broth without additives
# Experimental: Unless otherwise indicated, all sensory tests are triangle tests and are performed according to the guidelines in “Amtliche Sammlung von Untersuchungsverfahren nach § 35 LMBG (Lebensmittel-und Bedarfsgegenständegesetz)”; L 00.90 7, Untersuchung von Lebensmitteln, Sensorische Prüfverfahren, Dreiecksprüfung (Übernahme der gleichnahmigen Deutschen Norm DIN ISO 4120, Ausgabe Januar 1995), as follows:
# The sensory panel is trained to evaluate the taste of aqueous solutions (4 ml each) of the following standard taste compounds by using a triangle test as described in the literature (Wieser and Belitz, Z. Lebensm. Unters. Forsch., 1975, 159, 65-72): sucrose (40 mmol/L) for sweet taste; citric acid (5 mmol/L) for sour taste; NaCl (12 mmol/L) for salt taste; caffeine (2 mmol/L) for bitter taste; and monosodium glutamate (MSG) (6 mmol/L) for umami taste. For kokumi taste, a solution of GSH (glutathione, 10 mmol/L) in diluted chicken broth concentrate (Goumet Bouillon Huhn, Maggi, Singen, Germany; 3 g/100 g bottled water (Evian®)) is prepared and compared to the taste of chicken broth with no glutathione added.
# All sensory analyses are performed in a sensory panel room at 22-25° C. over three different sessions by a trained panel of 8 to 10 individuals.
# For recording the taste profiles, samples are prepared as indicated in the examples below. Taste profiles of samples are determined in a triangle test in three different sessions. Panellists refrain from eating or drinking for at least 1 hour prior to the session. At the start of the session and before each trial, the subject rinsed with water and expectorated. The participants receive a set of two blanks and one taste sample. Liquid samples are swirled around in the mouth briefly and expectorated. Solid samples are chewed for 20 seconds and then expectorated. […] Each sample with additive is compared to two reference samples without additives. Kokumi intensity is rated according to a scale from 0 to 5 (with 5 most intensive). The additive is added to a consumable and the sample is homogenised. The samples are presented to the sensory panel directly after homogenisation. The sensory panel in all tests included 8 trained individuals.
# Chicken Broth is prepared by dilution of 3 g chicken broth concentrate (Gourmet Bouillon Huhn; Maggi, Singen, Germany) with 100 ml water (Evian). Additives are added as specified in table below.
# For each sample, kokumi intensity is rated and panelists are asked to describe sensory characteristics.
# trained sensory panel [2] = assay: Sensory triangle test, kokumi compounds in tomato juice; settings: for Panelists preferring the sample: panel of 8; for Test results (taste description): versus reference without additives
# Experimental: Unless otherwise indicated, all sensory tests are triangle tests and are performed according to the guidelines in “[…] von […]-und Bedarfsgegenständegesetz)”; L 00.90 7, Untersuchung von Lebensmitteln, Sensorische […] Deutschen Norm DIN ISO 4120, Ausgabe Januar 1995), as follows: All sensory analyses are performed in a sensory panel room at 22-25° C. over three different sessions by a trained panel of 8 to 10 individuals. For recording the taste profiles, samples are prepared as indicated in the examples below. Taste profiles of samples are determined in a triangle test in three different sessions. Panellists refrain from eating or drinking for at least 1 hour prior to the session. At the start of the session and before each trial, the subject rinsed with water and expectorated. The participants receive a set of two blanks and one taste sample. Liquid samples are swirled around in the mouth briefly and expectorated. Solid samples are chewed for 20 seconds and then expectorated. […] Each sample with additive is compared to two reference samples without additives. Kokumi intensity is rated according to a scale from 0 to 5 (with 5 most intensive). The additive is added to a consumable and the sample is homogenised. The samples are presented to the sensory panel directly after homogenisation. The sensory panel in all tests included 8 trained individuals. Compounds as indicated in the table below are added to tomato juice (Albi, Germany) in the concentrations indicated below.
# trained sensory panel [3] = assay: Sensory triangle test, kokumi compounds in ketchup; settings: 2500 ppm; for Panelists indicating more meaty, bouillon-like, intensified overall taste: panel of 8
# Experimental: Unless otherwise indicated, all sensory tests are triangle tests and are performed according to the guidelines in “[…] von […]-und Bedarfsgegenständegesetz)”; L 00.90 7, Untersuchung von Lebensmitteln, Sensorische […] Deutschen Norm DIN ISO 4120, Ausgabe Januar 1995), as follows: All sensory analyses are performed in a sensory panel room at 22-25° C. over three different sessions by a trained panel of 8 to 10 individuals. For recording the taste profiles, samples are prepared as indicated in the examples below. Taste profiles of samples are determined in a triangle test in three different sessions. Panellists refrain from eating or drinking for at least 1 hour prior to the session. At the start of the session and before each trial, the subject rinsed with water and expectorated. The participants receive a set of two blanks and one taste sample. Liquid samples are swirled around in the mouth briefly and expectorated. Solid samples are chewed for 20 seconds and then expectorated. […] Each sample with additive is compared to two reference samples without additives. Kokumi intensity is rated according to a scale from 0 to 5 (with 5 most intensive). The additive is added to a consumable and the sample is homogenised. The samples are presented to the sensory panel directly after homogenisation. The sensory panel in all tests included 8 trained individuals. Compounds as indicated in the table below are added to ketchup (Kraft) in a concentration of 2500 ppm.
# [4] = additive 10 mmol/L, pH 6.5, scale 0 to 5 (5 most intensive), broth without additives rated 2
structure (smiles),measurement,setting,value
"CCCOC(=O)CC(SC[C@H](NC(=O)CC[C@H](N)C(=O)O)C(=O)O)C(=O)OCCC (stereo partly drawn) [S-(α,β-dicarboxyethyl dipropylester) γ-L-glutamyl-L-cysteine]",Sensory descriptors,trained sensory panel [1]; additive 10 mmol/L,bitter
"N[C@@H](CCC(=O)N[C@@H](CS)C(=O)NCC(=O)O)C(=O)O [GSH, reduced form, Gamma-L-glutamyl-L-cysteinyl-glycine]",Kokumi intensity (0-5),trained sensory panel [1]; [4],3.5
"COC(=O)CC(SC[C@H](NC(=O)CC[C@H](N)C(=O)O)C(=O)NCC(=O)O)C(=O)OC (stereo partly drawn) [S-(α,β-dicarboxyethyl dimethylester) γ-L-glutamyl-L-cysteinyl-glycine]",Kokumi intensity (0-5),trained sensory panel [1]; [4],3.5
"CCOC(=O)CC(SC[C@H](NC(=O)CC[C@H](N)C(=O)O)C(=O)O)C(=O)OCC (stereo partly drawn) [S-(α,β-dicarboxyethyl diethylester) γ-L-glutamyl-L-cysteine]",Kokumi intensity (0-5),trained sensory panel [1]; [4],4.5
same,Panelists preferring the sample,trained sensory panel [2]; 1000 ppm,all panelists
same,Test results (taste description),trained sensory panel [2]; 1000 ppm,even more pronounced kokumi sensation
same,"Panelists indicating more meaty, bouillon-like, intensified overall taste",trained sensory panel [3],7 out of 8
"CCOC(=O)CC(SC[C@H](NC(=O)CC[C@H](N)C(=O)O)C(=O)NCC(=O)O)C(=O)OCC (stereo partly drawn) [S-(α,β-dicarboxyethyl diethylester) γ-L-glutamyl-L-cysteinyl-glycine]",Kokumi intensity (0-5),trained sensory panel [1]; [4],3.5
same,Panelists preferring the sample,trained sensory panel [2]; 1000 ppm,6 out of 8
same,Test results (taste description),trained sensory panel [2]; 1000 ppm,more intensive and well-balanced kokumi taste
same,Test results (taste description),trained sensory panel [2]; 5000 ppm,increased with ascending concentrations
same,"Observed effect compared to S-(α,β-dicarboxyethyl diethylester) γ-L-glutamyl-L-cysteine",trained sensory panel [3],lower
same,"Panelists indicating more meaty, bouillon-like, intensified overall taste",trained sensory panel [3],7 out of 8
"CCCOC(=O)CC(SC[C@H](NC(=O)CC[C@H](N)C(=O)O)C(=O)NCC(=O)O)C(=O)OCCC (stereo partly drawn) [S-(α,β-dicarboxyethyl dipropylester) γ-L-glutamyl-L-cysteinyl-glycine]",Sensory descriptors,trained sensory panel [1]; additive 10 mmol/L,bitter
"N[C@@H](CCC(=O)O)C(=O)[O-].[Na+] [MSG, mono sodium glutamate]",Kokumi intensity (0-5),trained sensory panel [1]; [4],2
same,Sensory descriptors,trained sensory panel [1]; additive 10 mmol/L,higher umami (taste of MSG) intensity; also recorded: no effect on mouthfulness and complexity of the taste profile; also recorded: Increased umami taste
[Cl-].[Na+] [NaCl],Kokumi intensity (0-5),"trained sensory panel [1]; additive 30 mmol/L, pH 6.5, scale 0 to 5, broth without additives rated 2",2
same,Sensory descriptors,trained sensory panel [1]; additive 30 mmol/L,more salty than the negative control; also recorded: no effect on mouthfulness and complexity of the taste profile; also recorded: increased salty taste
"COC(=O)CC(SC[C@H](NC(=O)CC[C@H](N)C(=O)O)C(=O)O)C(=O)OC (stereo partly drawn) [S-(α,β-dicarboxyethyl dimethylester) γ-L-glutamyl-L-cysteine]",Kokumi intensity (0-5),trained sensory panel [1]; [4],4.5
